Laboratory results reported in PubChem BioAssay AID1350 (Sanford-Burnham Center for Chemical Genomics, 2008).
Active and inactive are the calls of the source.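 How the source made its calls: active means wells where survival under tumor necrosis factor attack stays above 50% of untreated control at 25 µM; inactive means the rest.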

System: CSM14.1 TNF/CHX-induced death, ATPlite luminescence, 24 h
Test: TNF extrinsic death rescue in CSM14.1 – cell-based, undifferentiated CSM14.1, ATP luminescence, selectivity assay for ER stress death inhibitor project, SAR follow-up (AID 1350)
Settings: at 25 µM; stronger effect = higher value

SMILES	survival
COc1ccc(C2CC(=O)C3=C(C2)Nc2ccccc2NC3c2ccccc2C(F)(F)F)cc1OC (stereo unspecified)	37% (inactive)
COc1ccc(C2CC(=O)C3=C(C2)Nc2ccccc2NC3c2cc(C)ccc2C)cc1 (stereo unspecified)	39% (inactive)
O=C1CC(c2ccccc2)CC2=C1C(c1c(F)cccc1Cl)Nc1ccccc1N2 (stereo unspecified)	32% (inactive)
COc1ccc(C2CC(=O)C3=C(C2)Nc2ccccc2NC3c2cccc(Br)c2)cc1OC (stereo unspecified)	38% (inactive)
CCCOc1ccc(C2Nc3ccccc3NC3=C2C(=O)CC(c2ccc(OC)c(OC)c2)C3)cc1 (stereo unspecified)	45% (inactive)
COc1ccc(C2CC(=O)C3=C(C2)Nc2ccccc2NC3c2cccc(C(F)(F)F)c2)cc1OC (stereo unspecified)	37% (inactive)
COc1ccc(C2CC(=O)C3=C(C2)Nc2ccccc2NC3c2cccc(Oc3ccccc3)c2)cc1OC (stereo unspecified)	39% (inactive)
CSc1ccc(C2Nc3ccccc3NC3=C2C(=O)CC(c2ccccc2)C3)cc1 (stereo unspecified)	43% (inactive)
CC1(C)CC(=O)C2=C(C1)Nc1ccccc1NC2c1ccc(-c2ccccc2)cc1 (stereo unspecified)	46% (inactive)
CCOc1cccc(C2Nc3ccccc3NC3=C2C(=O)CC(c2ccc(OC)cc2)C3)c1 (stereo unspecified)	40% (inactive)
CCOc1cc(C2Nc3ccccc3NC3=C2C(=O)CC(c2ccc(OC)cc2)C3)cc(Cl)c1O (stereo unspecified)	33% (inactive)
